± gives the expanded uncertainty stated by the source.
How the values were obtained:
[1] = xn = mol fraction of the nth substance listed; conditions: 101 kPa, Liquid, Vibrating tube method
[2] = 101.33 kPa, Liquid, Vibrating tube method

CCCC[N+]1(C)CCCC1.O=S(=O)([N-]S(=O)(=O)C(F)(F)F)C(F)(F)F + CN(C)C=O
mass density [kg/m3], [1]
Conditions | x1 = 0.0912 | x1 = 0.1871 | x1 = 0.2922 | x1 = 0.3783 | x1 = 0.4845 | x1 = 0.5809 | x1 = 0.6768 | x1 = 0.7744 | x1 = 0.8686
293.15 K | 1074.98 ± 0.17 | 1161.1 ± 0.22 | 1224.53 ± 0.25 | 1262.14 ± 0.27 | 1298.31 ± 0.31 | 1324.74 ± 0.33 | 1346.86 ± 0.37 | 1366.1 ± 0.42 | 1381.39 ± 0.48
298.15 K | 1070.09 ± 0.17 | 1156.23 ± 0.22 | 1219.62 ± 0.26 | 1257.32 ± 0.27 | 1293.53 ± 0.31 | 1319.99 ± 0.33 | 1342.16 ± 0.37 | 1361.38 ± 0.42 | 1376.73 ± 0.48
303.15 K | 1065.22 ± 0.17 | 1151.35 ± 0.22 | 1214.77 ± 0.25 | 1252.53 ± 0.27 | 1288.82 ± 0.31 | 1315.37 ± 0.33 | 1337.55 ± 0.37 | 1356.72 ± 0.42 | 1372.14 ± 0.48
308.15 K | 1060.4 ± 0.17 | 1146.5 ± 0.22 | 1210 ± 0.25 | 1247.8 ± 0.27 | 1284.1 ± 0.3 | 1310.7 ± 0.32 | 1332.9 ± 0.36 | 1352 ± 0.41 | 1367.6 ± 0.47
313.15 K | 1055.43 ± 0.16 | 1141.58 ± 0.22 | 1205.17 ± 0.25 | 1243.01 ± 0.27 | 1279.29 ± 0.3 | 1306.04 ± 0.32 | 1328.25 ± 0.36 | 1347.28 ± 0.41 | 1363.02 ± 0.47
318.15 K | 1050.48 ± 0.16 | 1136.63 ± 0.22 | 1200.26 ± 0.25 | 1238.22 ± 0.27 | 1274.53 ± 0.3 | 1301.32 ± 0.32 | 1323.54 ± 0.36 | 1342.91 ± 0.41 | 1358.3 ± 0.47
323.15 K | 1045.36 ± 0.16 | 1131.55 ± 0.25 | 1195.32 ± 0.26 | 1233.32 ± 0.27 | 1269.65 ± 0.3 | 1296.48 ± 0.32 | 1318.83 ± 0.36 | 1338.2 ± 0.41 | 1353.61 ± 0.46

CNC=O [N-methylformamide]
[2]
Conditions | mass density [kg/m3]
293.15 K | 1003.59 ± 0.25
298.15 K | 999.19 ± 0.24
303.15 K | 994.75 ± 0.24
308.15 K | 990.33 ± 0.24
313.15 K | 985.78 ± 0.24
318.15 K | 981.23 ± 0.24
323.15 K | 976.57 ± 0.24

CN(C)C=O [dimethylformamide]
[2]
Conditions | mass density [kg/m3]
293.15 K | 948.79 ± 0.14
298.15 K | 943.87 ± 0.14
303.15 K | 938.98 ± 0.14
308.15 K | 934.07 ± 0.14
313.15 K | 929.11 ± 0.14
318.15 K | 924.04 ± 0.14
323.15 K | 918.91 ± 0.14

Reference: the NIST ThermoML archive (doi:10.1021/je300941v)
